Test results from paper PMC4750852, “Synergistic Malaria Parasite Killing by Two Types of Plasmodial Surface Anion Channel Inhibitors” (PLoS ONE, 2016).
Where two headings read alike, the source gives them in different places. One block for each compound: values may come before it.

Key:
[1] = system: P. knowlesi channel (PSAC); test: Osmotic lysis kinetics in rhesus erythrocytes infected with P. knowlesi; format: cell-based; conditions: 3 μM inhibitor with 200 μM furosemide
Experimental: (§1) Enriched cells were washed in HBS (150 mM NaCl, 20 mM Na-HEPES, 0.1 mg/mL BSA, pH 7.5) and used for continuous tracking of osmotic lysis in permeant solutes as described. PSAC-mediated uptake was initiated by resuspension of cells in osmotic lysis solutions containing 20 mM Na-HEPES, 0.1 mg/mL BSA with permeant solute or salt added at 280–290 mOsm; where present, inhibitors were added from concentrated stocks in DMSO. Osmotic swelling and lysis at 37°C was then kinetically tracked by recording the transmittance of 700 nm light through the 1 mL cell suspension (Beckman Coulter spectrophotometer, Indianapolis, IN). Regular manual resuspension was used to minimize the effects of cell settling. Solute permeability was calculated using locally developed script as described. The data are presented with normalization to inhibitor-free controls included in each experiment.

P. falciparum [2] = test: Parasite growth inhibition, SYBR Green I assay, 72 h; format: cell-based, Plasmodium falciparum; conditions: for Improvement in growth IC50 in PGIM relative to standard medium: ratio of IC50 standard RPMI 1640-based medium to PGIM, present and prior studies [2]
Experimental: Efficacy of inhibitors against in vitro parasite growth was evaluated with the SYBR Green I assay for parasite nucleic acid as described. […] These cultures were then lysed (20 mM Tris, 10 mM EDTA, 0.016% saponin, 1.6% Triton X-100, pH 7.5) and incubated for 45 min with SYBR Green I nucleic acid stain at a 5000-fold dilution (Invitrogen, Waltham, MA). The mean fluorescence of replicate wells (excitation, 485 nm; emission, 528 nm) was used to quantify parasite DNA content and growth after normalization to in-plate controls with and without 20 μM chloroquine (100 and 0% growth inhibition, respectively).

[3] = system: plasmodial surface anion channel (PSAC), primary transport; test: Osmotic lysis kinetics, primary transport (sorbitol / alanine uptake) in infected erythrocytes; format: cell-based, Plasmodium falciparum
Experimental: as §1

[4] = system: plasmodial surface anion channel (PSAC), residual transport; test: Osmotic lysis kinetics, residual PhTMA+ transport in infected erythrocytes (with a primary component inhibitor present); format: cell-based, Plasmodium falciparum
Experimental: as §1

P. falciparum [5] = test: Fixed-ratio combination growth inhibition, isobologram analysis; format: cell-based, Plasmodium falciparum; conditions: combination of 0.82 μM cpd 1 and 0.35 μM PRT1-20
Experimental: Efficacy of inhibitors against in vitro parasite growth was evaluated with the SYBR Green I assay for parasite nucleic acid as described. […] These cultures were then lysed (20 mM Tris, 10 mM EDTA, 0.016% saponin, 1.6% Triton X-100, pH 7.5) and incubated for 45 min with SYBR Green I nucleic acid stain at a 5000-fold dilution (Invitrogen, Waltham, MA). The mean fluorescence of replicate wells (excitation, 485 nm; emission, 528 nm) was used to quantify parasite DNA content and growth after normalization to in-plate controls with and without 20 μM chloroquine (100 and 0% growth inhibition, respectively). Growth inhibition resulting from combinations of PSAC inhibitors was similarly evaluated using fixed ratios of the two compounds [28]. For each experiment, […] of the two inhibitors (10:0, 9:1, …, 1:9, 0:10) were prepared based on the optimal concentrations of each in isolated growth inhibition dose responses. For each ratio, serial dilutions were used to generate dose responses and permit calculation of IC50 values by interpolation; in each experiment, matched dose responses were included for each compound in isolation. […] For each inhibitor combination, synergistic action was quantified using the ∑FIC50 (sum of fractional inhibitor concentrations producing 50% block); values of this parameter below 0.7 indicate strong synergistic action.

[6] = system: plasmodial surface anion channel (PSAC), residual transport; test: Osmotic lysis kinetics, residual proline transport with 200 μM furosemide; format: cell-based, Plasmodium falciparum; conditions: added to 200 μM furosemide; maximal inhibition less than with PhTMA+
Experimental: as §1, with “Transport measurements used synchronous trophozoite-stage infected erythrocytes enriched from P. falciparum cultures by Percoll/sorbitol separation to > 95% parasitemia. Enriched” for “Enriched”

SMILES: O=C(COc1ccc2ccccc2c1)Nc1cccc(-c2nc3ncccc3o2)c1 [PRT-3]
Effect on residual PhTMA+ transport via the P. knowlesi channel [1]: inhibit
Improvement in growth IC50 in PGIM relative to standard medium (P. falciparum [2]): did not show measurable changes in efficacy in PGIM

IC50 (P. falciparum [2]; PGIM): 17.3 ± 1 nM
IC50 (P. falciparum [2]; PGIM with isoleucine increased to 34 μM): 1250 ± 100 nM
Improvement in growth IC50 in PGIM relative to standard medium (P. falciparum [2]): significantly improved activity in PGIM
SMILES: Cc1ccc(C)c(N2CCN(S(=O)(=O)c3ccc(-c4ccc(=O)[nH]n4)s3)CC2)c1 [ISG-21, reference compound]
Effect on sorbitol uptake at selected concentration ([3]; 100 nM ISG-21, 2 μM TP-52, residual uptake of PhTMA+ remains): abolish sorbitol uptake
Fold less effective against residual PhTMA+ transport than against sorbitol uptake ([4]; comparison of K0.5 values, PhTMA+ + 200 μM furosemide vs sorbitol): up to 3000 fold

Concentration in the combination as share of the compound's single drug IC50 (P. falciparum [5]): approximately 10%
SMILES: CCCCOc1ccc(C(=O)Nc2ccc(-c3nn4c(C)nnc4s3)cc2)cc1 [PRT1-20]
Action against the primary transport component compared to PRT-1 ([3]; sorbitol without furosemide, dose response): significantly reduced action
Activity against residual PhTMA+ transport compared to PRT-1 ([4]; PhTMA+ with 200 μM furosemide, dose response): improved activity
Parasite growth inhibition, single compound (P. falciparum [2]; applied individually, standard RPMI-1640 based media): low micromolar concentrations

IC50 ([3]; sorbitol without furosemide, mean ± S.E.M., read-out: K0.5 against sorbitol uptake (primary channel route)): 590 ± 43 nM
IC50 ([4]; PhTMA-Cl plus 100 nM ISG-21, read-out: K0.5 for block of residual PhTMA+ transport): 44 nM
IC50 ([4]; PhTMA-Cl plus 2 μM TP-52, read-out: K0.5 for block of residual PhTMA+ transport): 56 nM
IC50 ([4]; in combination with 200 μM furosemide, mean ± S.E.M., read-out: K0.5 for block of residual PhTMA+ uptake): 190 ± 3 nM
SMILES: CCOc1ccc(C(=O)Nc2ccc(-c3nn4c(C)nnc4s3)cc2)cc1 [PRT-1]
Effect on residual proline transport [6]: clearly reduced proline transport further
Effect on residual PhTMA+ transport via the P. knowlesi channel [1]: inhibit
Improvement in growth IC50 in PGIM relative to standard medium (P. falciparum [2]): did not show measurable changes in efficacy in PGIM
